The values that follow come from patent publication US20230146795A1, “ENHANCEMENT OF ANTI-TUMOR ACTIVITY OF SHP2 INHIBITOR PYRIMIDINONE IN COMBINATION WITH NOVEL CANCER MEDICINES IN CANCERS” (TAIHO PHARMACEUTICAL CO., LTD., priority 2020, published 2023).

The target of one experiment is T1, SHP2 (Homo sapiens, UniProt Q06124).
T1 sequence (Q06124 1-593): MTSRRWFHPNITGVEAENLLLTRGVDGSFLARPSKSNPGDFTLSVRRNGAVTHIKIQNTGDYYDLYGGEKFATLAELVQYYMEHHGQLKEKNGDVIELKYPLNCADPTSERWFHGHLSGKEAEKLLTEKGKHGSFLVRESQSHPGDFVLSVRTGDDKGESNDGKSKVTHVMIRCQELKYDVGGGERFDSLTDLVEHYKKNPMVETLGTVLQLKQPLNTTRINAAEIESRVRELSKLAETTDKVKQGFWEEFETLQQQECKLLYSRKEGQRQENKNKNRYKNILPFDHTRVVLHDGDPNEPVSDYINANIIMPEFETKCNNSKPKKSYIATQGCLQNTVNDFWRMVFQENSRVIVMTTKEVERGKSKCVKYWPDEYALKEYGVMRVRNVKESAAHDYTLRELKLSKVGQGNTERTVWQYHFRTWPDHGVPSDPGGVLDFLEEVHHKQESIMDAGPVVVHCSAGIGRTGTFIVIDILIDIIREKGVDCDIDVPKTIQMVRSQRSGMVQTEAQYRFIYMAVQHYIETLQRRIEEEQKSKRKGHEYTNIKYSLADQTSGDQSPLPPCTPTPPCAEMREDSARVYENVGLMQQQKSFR
As to the kind of experiment: SHP2 biochemical assay (DiFMUP conversion). The following applies: 10 pM SHP2, 0.25 μM pIRS1 peptide, 50 μM DiFMUP. Here is the method: (1) SHP2 Biochemical Assay SHP2 Activity was Monitored by Measuring the Conversion of the Surrogate Substrate 6,8-Difluoromethylumbelliferyl Phosphate (DiEMUP) to the Fluorescent Product, 6,8-Difluoromethylumbelliferone (DiFMU).
SHP2 was pre-incubated with test compounds and the activating peptide pIRS1 (H2N-LN(pY) IDLDLV-(PEG) 8-LST(pY)ASINFQK-amide) for 30 min, prior to addition of the 6,8-difluoromethylumbelliferyl phosphate (DiEMUP), (Thermo Fisher D6567). Final assay concentrations were 10 pM SHP2, 0.25 μM pIRS1 peptide, 50 μM DiFMUP, 25 mM Bis-Tris propane, pH 7.0, 150 mM NaCl, 0.05% (v/v) Tween-20, 0.5 mM TCEP and 5% (v/v) DMSO. Rates of reaction were then measured over 30 min by monitoring fluorescence on a BMG Pherastar reader at excitation 360 nm/emission 450 nm. IC50 values were calculated in singlicate from the normalized dose-response plots using four parameter logistic curve fit. The Experiment for each compound was carried out in one time or multiple times, and the IC50 values were shown as a single value (for a compound measured in a single experiment) or an average value (for a compound measured in multiple experiments).

The next experiment relates to MKN45. In words: Anti-proliferation assay (CellTiter-Glo 2.0), combination index, MKN45. Format: cell-based. In a few lines: (§1)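 Cells were seeded at 500 cells/well in medium with 10% FBS and exposed to agents at 8 concentrations including 0 nM, for 3 days at 37° C under 5% CO2. Survival was read by CellTiter-Glo 2.0 luminescence, and combination index was determined at each combined concentration.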
(ATP-based viability assays read luminescence as a measure of living cells.)

The next experiment relates to NCI-H358. In words: Anti-proliferation assay (CellTiter-Glo 2.0), combination index, NCI-H358. Type of experiment: cell-based. In a few lines: as §1
Another experiment relates to MV-4-11. In words: Anti-proliferation assay (CellTiter-Glo 2.0), combination index, MV-4-11. Format: cell-based. In outline: (§2)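 Cells were seeded at 500/well in 10% FBS medium and grown 24 h at 37°C before dosing. Compound 1 (10 concentrations) was combined with a second antitumor agent (8 concentrations including 0 nM) for 3 days. Viability was read by CellTiter-Glo 2.0 luminescence, and a combination index was calculated at each concentration pair.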

A further experiment relates to RMG-I. In words: Anti-proliferation assay (CellTiter-Glo 2.0), combination index, RMG-I. Format: cell-based. In a few lines: as §2
For the next experiment, the system named is NCI-H23. In words: Anti-proliferation assay (CellTiter-Glo 2.0), combination index, NCI-H23. Format: cell-based. Here is the method:
Cell lines were obtained from ATCC or Health Science Research Resources Bank.
Each cell lines were collected by ordinary method, then suspended in indicated medium containing 10% fetal bovine serum in table 3. The number of cells seeded per well was set to 500 cells/20 μL. […] The concentration of each anti-cancer reagents set to 8 concentrations including 0 nM. After adding the medicine to the cells, the cells were further incubated at 37° C. for 3 days under 5% CO2. Cell survival rates were calculated by adding 20 μL of CellTiter-Glo(registered trademark) 2. 0 (Promega) solution to each well, incubating the cells at room temperature for 10 minutes, and then measuring the chemiluminescence intensity of each well using a plate reader (ARVO).
A combination index (CI) value at each combined concentration of the medicines was determined.

[1] abbreviates: Compound 1 1.52 + combination drug 41.2 nmol/L (1:27).
Where [2] appears, read: Compound 1 4.57 + combination drug 123 nmol/L (1:27).
[3] abbreviates: Compound 1 13.7 + combination drug 370 nmol/L (1:27).
[4] abbreviates: Compound 1 41.2 + combination drug 1110 nmol/L (1:27).
The mark [5] stands for this setting: Compound 1 123 + combination drug 3330 nmol/L (1:27).
[6] abbreviates: Compound 1 370 + combination drug 10000 nmol/L (1:27).
The mark [7] stands for this setting: Compound 1 123 + combination drug 370 nmol/L (1:3).
Setting [8] is: Compound 1 370 + combination drug 1110 nmol/L (1:3).
[9] abbreviates: Compound 1 1110 + combination drug 3330 nmol/L (1:3).
The mark [10] stands for this setting: Compound 1 3330 + combination drug 10000 nmol/L (1:3).
The mark [11] stands for this setting: Compound 1 1.52 + combination drug 123 nmol/L (1:81).
Setting [12] is: Compound 1 4.57 + combination drug 370 nmol/L (1:81).
Setting [13] is: Compound 1 13.7 + combination drug 1110 nmol/L (1:81).
Setting [14] is: Compound 1 41.2 + combination drug 3330 nmol/L (1:81).
[15] abbreviates: Compound 1 123 + combination drug 10000 nmol/L (1:81).
Where [16] appears, read: Compound 1 41.2 + combination drug 123 nmol/L (1:3).

On SHP2, `Cn1nc2ccc(-c3n[nH]c4nc(N5C[C@H]6CC[C@@H]5[C@@H]6N)n(C)c(=O)c34)c(Cl)c2c1Cl` [Compound 2, 6-((1R,4R,7R)-7-amino-2-azabicyclo[2.2.1]heptan-2-yl)-3-(3,4-dichloro-2-methyl-2H-indazol-5-yl)-5-methyl-1,5-dihydro-4H-pyrazolo[3,4-d]pyrimidin-4-one] had an IC50 of 2.6 nM.

As to `Cn1cc2c(Cl)c(-c3c[nH]c4nc(N5C[C@H]6CC[C@@H]5[C@@H]6N)n(C)c(=O)c34)ccc2n1` [Compound 4, 2-((1R,4R,7R)-7-amino-2-azabicyclo[2.2.1]heptan-2-yl)-5-(4-chloro-2-methyl-2H-indazol-5-yl)-3-methyl-3,7-dihydro-4H-pyrrolo[2,3-d]pyrimidin-4-one], the IC50 on SHP2 was 3.7 nM.

Regarding `Cn1nc2ccc(-c3c[nH]c4nc(N5C[C@H]6CC[C@@H]5[C@@H]6N)n(C)c(=O)c34)c(Cl)c2c1Cl` [Compound 5, 2-((1R,4R,7R)-7-amino-2-azabicyclo[2.2.1]heptan-2-yl)-5-(3,4-dichloro-2-methyl-2H-indazol-5-yl)-3-methyl-3,7-dihydro-4H-pyrrolo[2,3-d]pyrimidin-4-one], inhibition on SHP2 was half-maximal at 1.5 nM (IC50).

In turn, `Cn1nc2ccc(-c3c[nH]c4nc(N5[C@H]6CC[C@@H]5[C@H](N)C6)n(C)c(=O)c34)c(F)c2c1Cl` [Compound 6, 2-((1R,2R,4S)-2-amino-7-azabicyclo[2.2.1]heptan-7-yl)-5-(3-chloro-4-fluoro-2-methyl-2H-indazol-5-yl)-3-methyl-3,7-dihydro-4H-pyrrolo[2,3-d]pyrimidin-4-one] displayed an IC50 at SHP2 of 2.8 nM.

For `CCn1cc2c(Cl)c(-c3c[nH]c4nc(N5[C@H]6CC[C@@H]5[C@H](N)C6)n(C)c(=O)c34)ccc2n1` [Compound 7, 2-((1R,2R,4S)-2-amino-7-azabicyclo[2.2.1]heptan-7-yl)-5-(4-chloro-2-ethyl-2H-indazol-5-yl)-3-methyl-3,7-dihydro-4H-pyrrolo[2,3-d]pyrimidin-4-one], half-maximal inhibition on SHP2 (IC50) was put at 3.3 nM.

Consider `NC1(c2ccc(-c3nc4ccn5c(=O)[nH]nc5c4cc3-c3ccccc3)cc2)CCC1` [MK-2206, 8-[4-(1-aminocyclobutyl)phenyl]-9-phenyl-1,2,4-triazolo[3,4-f][1,6]naphthyridin-3(2H)-one], for which the CI with MKN45 (setting [1]) is on record as 0.315; with MKN45 (setting [2]), 0.564; with MKN45 (setting [3]) it was 0.408; with MKN45 (setting [4]), 0.383; with MKN45 (setting [5]), 0.420; in the experiment with MKN45 (setting [6]) it was 0.608. Further, the CI in the experiment on NCI-H358 (setting [7]) amounted to 0.477; with NCI-H358 (setting [8]), 0.204; in the experiment with NCI-H358 (setting [9]) it was 0.301; in the experiment with NCI-H358 (setting [10]) it was 0.213; in the experiment with MV-4-11 (setting [11]), 0.315; in the experiment on MV-4-11 (setting [12]), 0.520. Also, the CI in the experiment with MV-4-11 (setting [13]) came to 0.446; in the experiment with MV-4-11 (setting [14]) it was 0.318; with MV-4-11 (setting [15]), 0.137; in the experiment with RMG-I (setting [11]) it was 0.724; with RMG-I (setting [12]) it was 0.398; with RMG-I (setting [13]) it was 0.314. Moreover, the CI in the experiment with RMG-I (setting [14]) was found to be 0.320; with RMG-I (setting [15]) it was 0.353; in the experiment with NCI-H23 (setting [16]), 0.783; in the experiment on NCI-H23 (setting [7]), 0.265; with NCI-H23 (setting [8]), 0.232; in the experiment on NCI-H23 (setting [9]) it was 0.295. Further, the CI in the experiment on NCI-H23 (setting [10]) came out at 0.340. Further, the Fa in the experiment on MKN45 (setting [1]) stood at 0.1506; in the experiment with MKN45 (setting [2]), 0.1981; in the experiment with MKN45 (setting [3]) it was 0.3872; in the experiment with MKN45 (setting [4]) it was 0.5869; with MKN45 (setting [5]), 0.7489; with MKN45 (setting [6]), 0.8398. The Fa was 0.2532 in the experiment on NCI-H358 (setting [7]); 0.4838 in the experiment with NCI-H358 (setting [8]); 0.5761 in the experiment with NCI-H358 (setting [9]); 0.7446 in the experiment with NCI-H358 (setting [10]); 0.2639 with MV-4-11 (setting [11]); 0.3899 with MV-4-11 (setting [12]). The Fa in the experiment with MV-4-11 (setting [13]) was 0.6851; with MV-4-11 (setting [14]), 0.9006; in the experiment with MV-4-11 (setting [15]), 0.9846; with RMG-I (setting [11]), 0.1204; in the experiment with RMG-I (setting [12]), 0.2545; in the experiment on RMG-I (setting [13]), 0.4133. The Fa with RMG-I (setting [14]) turned out to be 0.5593; in the experiment with RMG-I (setting [15]), 0.6868; with NCI-H23 (setting [16]), 0.1015; in the experiment on NCI-H23 (setting [7]), 0.2110; in the experiment with NCI-H23 (setting [8]), 0.3486; in the experiment on NCI-H23 (setting [9]) it was 0.5074. Besides, the Fa in the experiment on NCI-H23 (setting [10]) is on record as 0.7061. The “Description (combinatory effect by CI)” value in the experiment on MKN45 (Compound 1:combination drug molar ratio 1:27) and in the experiment on RMG-I (Compound 1:combination drug molar ratio 1:81) was “Synergy (0.3-0.7)” each time.

A word on the IC50: it is the concentration that inhibits the measured activity by half. High values mean lower potency, low ones higher potency.
